Source: patent US12037372B2, “Bioactive peptides derived from snakes” (Universiteit Leiden, priority 2018, dated 2024)
Where “and” joins values, the source holds several entries; their conditions need not be identical. Identical values can stand only once.

Assays:
Test in all cases: Bactericidal activity of peptides (in vitro killing assay)
[1] = system: MDR P. aeruginosa (LUH 15103); assay type: cell-based, Pseudomonas aeruginosa; details: 2-hour treatment, 50% v/v human plasma, median (range)
Protocol: (§1) Enterococcus faecium (LUH 15122), Staphylococcus aureus (LUH 14616), Klebsiella pneumoniae (LUH 15104), Acinetobacter baumannii (RUH 875), Pseudomonas aeruginosa (LUH 15103), Enterobacter cloacae (LUH 15114) and Escherichia coli (LUH 15117) were used. Prior to experimentation the bacteria were taken from a glycerol stock stored at −80° C. and cultured overnight on sheep blood agar plates at 37° C. On the day of experimentation the bacteria were cultured in tryptic soy broth (TSB; Oxoid) for 2.5 hours at 37° C. and 200 rpm to a mid-logarithmic phase. The bacterial suspension was washed in phosphate buffered saline (PBS; pH 7.4), centrifuged for 10 minutes at 3000 rpm, and resuspended in PBS to the desired concentration, as determined by measuring the absorbance at 600 nm.
(§2) As a control the bacteria were also incubated in PBS with either 50% plasma or 50% urine without peptide. The plate was incubated for 2 hours at 37° C. and 200 rpm. After incubation the number of viable bacteria was determined microbiologically by plating the samples and a 10-times dilution series in PBS on diagnostic sensitivity test agar plates (DST; Sigma). The DST plates were incubated overnight at 37° C. Results were expressed as lethal concentration 99.9, or LC99.9, which represents the lowest concentration of peptide that killed 99.9% of the bacteria within 2 hours of incubation.

[2] = system: MDR S. aureus (LUH 14616), MRSA; assay type: cell-based, Staphylococcus aureus; details: MDR S. aureus LUH 14616; 2-hour treatment; 50% v/v human plasma; lowest concentration killing ≥99.9%; median (range)
Protocol: as §1, §2

[3] = system: multidrug resistant strain Acinetobacter baumannii RUH875; assay type: cell-based; details: 50% (v/v) human plasma, 2 hours
Protocol: as §1, §2

Row | Substance | LC99.9 (μM) MDR P. aeruginosa in 50% plasma [1] | LC99.9 (μM) MRSA in 50% plasma [2] | LC99.9 (μM) A. baumannii ([3]; Table 5) [µM] | LC99.9 (μM) A. baumannii ([3]; Table 6) [µM]
1 | KRFAGFFQFVIGVSFHF [SP21] | >102.4 µM | >102.4 µM | – | –
2 | RFKKFFRKVKKGVHRYFKKNKFYI [SP27-64] | – | – | 0.8 | –
3 | KRFRKFFKRLLKSVRRAVKKFRKKPRLIGLSTLL [SP8] | 1.6 µM | 25.6 µM | – | –
4 | KRFKKFFKKIKNGIKTFIKKTQMAIGSHFRW [SP30] | 2.4 (1.6-3.2) μM | 51.2 µM | – | –
5 | KRFTFYKKVKKNVENLLNKFFKKLRVIGDSIPF [SP26] | 12.8 µM | >102.4 µM | – | –
6 | RKFKKSFKKIRKWVKKATKIAGEVAVEILITKVILGSVGL [SP1] | 3.2 µM | >102.4 µM | – | –
7 | KRFKKFFRKIKKGFRKIFKKTKIFIGGTIPI [SP15] | 0.8 µM | 12.8 µM | – | –
8 | KRFKKFLKKLKKSVKKHVKEFFKKPRVIGV [SP35] | 1.6 µM | 51.2 µM | – | –
9 | FKKFFRKVKKGVHRYFKKNKFYIA [SP27-65] | – | – | 1.6 | –
10 | KRFKKFFKKVKKSVKKRLKKIFKKPMVIGVTFPF [SP9] | 1.6 µM | 51.2 (25.6-51.2) μM | – | –
11 | KRFKKFFKKLKNSVRKCAKKFFKKLRVIRVSIPF [SP24] | 1.6 µM | 6.4 µM | – | –
12 | RKVKKGVHRYFKKNKFYIAATIPY [SP27-70] | – | – | 12.8 | –
13 | KRFKNFFKKIRDGIHEFIHNNRFVIGVNFRF [SP29] | 51.2 µM | >102.4 µM | – | –
14 | KRFKKFFKKIKTGIKKVIKKTKQAIASHFRW [SP18] | 0.8 µM | > 102.4 µM and 102.4 µM | – | –
15 | KRFLRVFKKLKRGIRKLFKKKKIVTGPLTS [SP19] | 12.8 µM | >102.4 µM | – | –
16 | AREKSFLQKMKVILQLSSQDQIQAF [SP20] | >102.4 µM | >102.4 µM | – | –
17 | DQVERGNFAKDGSKARVKKSLTKWVKFLKKIIAKLGRPLIGF [SP22] | 51.2 µM | 102.4 µM | – | –
18 | KKFFRKVKKGVHRYFKKNKFYIAA [SP27-66] | – | – | 1.6 | –
19 | FRKVKKGVHRYFKKNKFYIAATIP [SP27-69] | – | – | 25.6 | –
20 | VKKGVHRYFKKNKFYIAATIPYYG [SP27-72] | – | – | 25.6 | –

Row | Substance | LC99.9 (μM) MDR P. aeruginosa in 50% plasma [1] | LC99.9 (μM) MRSA in 50% plasma [2] | LC99.9 (μM) A. baumannii ([3]; Table 5) [µM] | LC99.9 (μM) A. baumannii ([3]; Table 6) [µM]
21 | KRVKRFKKFFKKVKKSVKKRLKKIFKKPMVIGVTIPF [SP2] | 0.4 µM | 25.6 µM | – | –
22 | KRFLRLVVFKKLKKGLRKLFKKKKIVTGHVTS [SP28] | 6.4 µM | 51.2 µM | – | –
23 | KRFKNFFKRVRDGIRDFFRKNHIVIGVNFRF [SP31] | 25.6 µM | 102.4 µM | – | –
24 | KRFLRVFRKLKKGLKKLFKRKKVVTGYVTA [SP32] | 12.8 µM | 25.6 µM | – | –
25 | KRFKKFFMKLKKSVKKRVMKFFKKPMVIGVTFPF [SP12] | 3.2 µM | 25.6 (12.8->102.4) μM | – | –
26 | FFRKVKKGVHRYFKKNKFYIAATI [SP27-68] | – | – | 12.8 | –
27 | KRFVGSFQLVVGVSFRF [SP34] | >102.4 µM | >102.4 µM | – | –
28 | KRFKKFFKKVKKSVKKRLKKIFKKPMVIGVTIPF [SP6] | 0.4 µM | 57.6 (12.8-102.4) μM | – | –
29 | KRFKKFFRKVKKGVHRYFKKNKFY [SP27-63] | – | – | 0.4 | 0.4
30 | KRFKKFFRKLKKSVKKRVKKFFKKPRVIGVTIPF [SP11] | 0.4 µM | 3.2 µM | – | –
31 | KFFRKVKKGVHRYFKKNKFYIAAT [SP27-67] | – | – | 3.2 | –
32 | KRFKKFFKKVKKSVKKRLKKIFKKPIVIGVSIPF [SP25] | 0.4 µM | 12.8 µM | – | –
33 | KRFKKFFKKLKNSVKKRVKKFFRKPRVIGVTFPF [SP3] | 0.8 µM | 3.2 µM | – | –
34 | KRFKKFFKKAKKSVKKRLKKFFNKTRVIGVSIPF [SP14] | 0.4 µM | 12.8 µM | – | –
35 | KRFAGFFQFVVGVSFRF [SP33] | >102.4 µM | >102.4 µM | – | –
36 | KVKKGVHRYFKKNKFYIAATIPYY [SP27-71] | – | – | 12.8 | –
37 | KRFKKFFKKIKNSVKKRVKKFFKKPRVIGVSIPF [SP23] | 0.2 µM | 4.8 (3.2-6.4) μM | – | –
38 | KRFKKFFKKVKKSVKKRLKKIFKKPMVIGVSIPF [SP7] | 0.8 µM | 38.4 (25.6-51.2) μM | – | –
39 | KRFKDFFHRIRDGVRDFFRNNHFVCGVNFRF [SP17] | >102.4 µM | >102.4 µM | – | –
